The text below walks through data of ChEMBL document CHEMBL3045751, “Structural Modification of the 6-Chloropyridyl Moiety in the Imidacloprid, Skeleton: Introduction of a Five-membered Heteroaromatic Ring and the Resulting Insecticidal Activity” (1993).

In this test the test system is Nephotettix cincticeps. Nature of the test: Insecticidal activity against Nephotettix cincticeps (green rice leafhopper) in compound treated germinated rice seedlings assessed as mortality measured after 5 days. In kind it is functional.
Regarding `O=[N+]([O-])/C=C1\NCCN1Cc1ccc(Cl)nc1`, the LC90 came to 0.32 ppm.

Turning to `O=[N+]([O-])/C=C1\NCCN1Cc1ccco1`, the LC90 worked out at 200 ppm.

For the molecule `O=[N+]([O-])/C=C1\NCCN1Cc1cccs1`, the LC90 is 200 ppm.

For the molecule `O=[N+]([O-])/C=C1\NCCN1Cc1ccc[nH]1`, the LC90 is 200 ppm.

Consider `O=[N+]([O-])/C=C1\NCCN1Cc1cccnc1`, for which the LC90 is given as 8 ppm.

Consider `O=[N+]([O-])/C=C1\NCCN1Cc1cncs1`, for which the LC90 was 8 ppm.

Turning to `O=[N+]([O-])/C=C1\NCCN1Cc1ccccc1`, the LC90 stood at 200 ppm.

`O=[N+]([O-])/C=C1\NCCN1Cc1cnc(Cl)s1`: the LC90 is reported as 0.32 ppm.

`O=[N+]([O-])/C=C1\NCCN1Cc1csc(Cl)n1`: the LC90 came out at 200 ppm.

With `Cc1ncc(CN2CCN/C2=C\[N+](=O)[O-])s1`, the LC90 is 1.6 ppm.

Take `Cc1cc(CN2CCN/C2=C\[N+](=O)[O-])on1`: the LC90 is given as 1.6 ppm.

As to `O=[N+]([O-])/C=C1\NCCN1Cc1cc(Br)no1`, the LC90 is 1.6 ppm.

Consider `Cn1cc(CN2CCN/C2=C\[N+](=O)[O-])cn1`, for which the LC90 is recorded as 1.6 ppm.

With `O=[N+]([O-])/C=C1\NCCN1Cc1ccc(Br)s1`, the LC90 stood at 40 ppm.

In the case of `O=[N+]([O-])/N=C1\NCCN1Cc1ccc(Cl)nc1` [IMIDACLOPRID], the LC90 is 0.32 ppm.

Turning to `O=[N+]([O-])/N=C1\NCCN1Cc1cnc(Cl)s1` [IMIDACLOTHIZ], the LC90 is reported as 0.32 ppm.
